Test results: patent US10875876B2, “Cyclized sulfamoylarylamide derivatives and the use thereof as medicaments for the treatment of hepatitis B” (priority 2015, dated 2020)
Read-outs that look alike come from different tables or passages of the source.

Columns and labels:
HBV = assay: anti HBV activity, HepG2.117 cell line, intracellular HBV DNA by realtime PCR; assay type: cell-based; settings: HepG2.117 cell line (Tet-off), 3 days of treatment, intracellular HBV DNA quantified by realtime PCR, read-out: HBV-AVE-HepG2.117 EC50
How it was run: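 HepG2.117 cells, a Tet-off line that replicates HBV without doxycycline, were induced and then treated in duplicate with serially diluted compound. After 3 days, intracellular HBV DNA was quantified by real-time PCR with an HBV-specific primer set and probe.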

[1] = Cytotoxicity in HepG2 cells, Resazurin assay; settings: human, HepG2 cells, TOX-HepG2-4 d CC50 (μM), HepG2 cells incubated for 4 days, viability by Resazurin assay
[2] = Hepatitis B virus, HepG2.117, 72 h

Row | Structure (SMILES) | EC50 (HBV; [2]) | CC50 at 4 days [1] | EC50 (HBV)
1 | Cc1cc(CC2(C)COc3c(cn(C)c3C(=O)Nc3ccc(F)c(F)c3)S(=O)(=O)N2)no1 (racemic) [Compound 162, N-(3,4-difluorophenyl)-3,7-dimethyl-3-[(5-methylisoxazol-3-yl)methyl]-1,1-dioxo-2,4-dihydropyrrolo[3,4-b][1,4,5]oxathiazepine-6-carboxamide] | 3 nM | > 25 µM | –
2 | CCC1Cc2c(cn(C)c2C(=O)Nc2ccc(F)c(F)c2)S(=O)(=O)N1 (centres unmarked) [Compound 17, N-(3,4-difluorophenyl)-3-ethyl-6-methyl-1,1-dioxo-3,4-dihydro-2H-pyrrolo[3,4-e]thiazine-5-carboxamide] | < 98 nM | > 25 µM | –
3 | Cn1cc2c(c1C(=O)Nc1ccnc(C(F)F)c1)C=CC(C(F)F)NS2(=O)=O (centres unmarked) [compound 247] | > 130 nM | > 25 µM | –
4 | CC(NCC(F)(F)F)C1CCc2c(cn(C)c2C(=O)Nc2cc(F)c(F)c(F)c2)S(=O)(=O)N1 (single isomer, unassigned) [Compound 218c, 7-methyl-1,1-dioxo-3-[1-(2,2,2-trifluoroethylamino)ethyl]-N-(3,4,5-trifluorophenyl)-2,3,4,5-tetrahydropyrrolo[3,4-f]thiazepine-6-carboxamide] | – | > 25 µM | 6 nM
5 | C[C@H]1CCc2c(cn(C)c2C(=O)Nc2cc(F)c(F)c(F)c2)S(=O)(=O)N1 (single isomer, unassigned) [Compound 39, (3*S)-3,7-dimethyl-1,1-dioxo-N-(3,4,5-trifluorophenyl)-2,3,4,5-tetrahydropyrrolo[3,4-f]thiazepine-6-carboxamide] | 3 nM | > 25 µM | –
6 | Cn1cc2c(c1C(=O)Nc1ccc(F)c(F)c1)OCC(C)(C)NS2(=O)=O [Compound 133, N-(3,4-difluorophenyl)-3,3,7-trimethyl-1,1-dioxo-2,4-dihydropyrrolo-[3,4-b][1,4,5]oxathiazepine-6-carboxamide] | 11 nM | > 25 µM | –
7 | Cn1cc2c(c1C(=O)Nc1ccnc(C(F)F)c1)OC[C@H](C(C)(C)O)NS2(=O)=O [Compound 151, (3R)—N-[2-(difluoromethyl)-4-pyridyl]-3-(1-hydroxy-1-methyl-ethyl)-7-methyl-1,1-dioxo-3,4-dihydro-2H-pyrrolo[3,4-b][1,4,5]oxathiazepine-6-carboxamide] | 76 nM | > 25 µM | –
8 | Cn1cc2c(c1C(=O)Nc1ccc(F)c(C(F)F)c1)CCC1(COC1)NS2(=O)=O [Compound 137, N-[3-(difluoromethyl)-4-fluoro-phenyl]-7-methyl-1,1-dioxo-spiro[4,5-dihydro-2H-pyrrolo[3,4-f]thiazepine-3,3′-oxetane]-6-carboxamide] | 6 nM | > 25 µM | –
9 | Cn1cc2c(c1C(=O)Nc1ccc(F)c(F)c1)C=CC1(COC1)NS2(=O)=O [Compound 132, N-(3,4-difluorophenyl)-7-methyl-1,1-dioxo-spiro[2H-pyrrolo[3,4-f]-thiazepine-3,3′-oxetane]-6-carboxamide] | 19 nM | > 25 µM | –
10 | C[C@@H](O)[C@@H]1COc2c(cn(C)c2C(=O)Nc2ccc(F)c(F)c2)S(=O)(=O)N1 [Compound 34, (3S)—N-(3,4-difluorophenyl)-3-[(1R)-1-hydroxyethyl]-7-methyl-1,1-dioxo-3,4-dihydro-2H-pyrrolo[3,4-b][1,4,5]oxathiazepine-6-carboxamide] | 56 nM | > 25 µM | –
11 | Cn1cc2c(c1C(=O)Nc1cc(F)c(F)c(F)c1)OCC(C)(CO)NS2(=O)=O (single isomer, unassigned) [Compound 214a, 3-(hydroxymethyl)-3,7-dimethyl-1,1-dioxo-N-(3,4,5-trifluorophenyl)-2,4-dihydropyrrolo[3,4-b][1,4,5]oxathiazepine-6-carboxamide] | – | > 25 µM | 120 nM
12 | Cn1cc2c(c1C(=O)Nc1ccc(F)c(C#N)c1)OCC(C)(C)NS2(=O)=O [Compound 135, N-(3-cyano-4-fluoro-phenyl)-3,3,7-trimethyl-1,1-dioxo-2,4-dihydropyrrolo[3,4-b][1,4,5]oxathiazepine-6-carboxamide] | 5 nM | > 25 µM | –
13 | Cn1cc2c(c1C(=O)Nc1ccc(F)c(F)c1)OCC(C(=O)O)NS2(=O)=O (centres unmarked) [compound 242] | > 130 nM | > 25 µM | –
14 | Cn1ccc(CC2(C)COc3c(cn(C)c3C(=O)Nc3ccc(F)c(F)c3)S(=O)(=O)N2)n1 (racemic) [Compound 167, N-(3,4-difluorophenyl)-3,7-dimethyl-3-[(1-methylpyrazol-3-yl)methyl]-1,1-dioxo-2,4-dihydropyrrolo[3,4-b][1,4,5]oxathiazepine-6-carboxamide] | 41 nM | > 25 µM | –
15 | CC1COc2c(cn(C)c2C(=O)Nc2ccc(F)c(F)c2)S(=O)(=O)N1 (single isomer, unassigned) [Compound 14a, N-(3,4-difluorophenyl)-3,7-dimethyl-1,1-dioxo-3,4-dihydro-2H-pyrrolo-[3,4-b][1,4,5]oxathiazepine-6-carboxamide] | – | > 25 µM | 250 nM
16 | C[C@H](O)[C@H]1CCc2c(cn(C)c2C(=O)Nc2ccc(F)c(C#N)c2)S(=O)(=O)N1 [Compound 90, (3R)—N-(3-cyano-4-fluoro-phenyl)-3-[(1S)-1-hydroxyethyl]-7-methyl-1,1-dioxo-2,3,4,5-tetrahydropyrrolo[3,4-f]thiazepine-6-carboxamide] | 19 nM | > 25 µM | –
17 | CC1COc2c(ccc(F)c2C(=O)Nc2ccc(F)c(F)c2)S(=O)(=O)N1 (centres unmarked) [Compound 12, N-(3,4-difluorophenyl)-7-fluoro-3-methyl-1,1-dioxo-3,4-dihydro-2H-5,1λ^6,2-benzoxathiazepine-6-carboxamide] | 350 nM | > 25 µM | –
18 | Cn1cc2c(c1C(=O)Nc1ccnc(C(F)(F)F)c1)C=CC(C(F)(F)F)NS2(=O)=O (centres unmarked) [Compound 58, 7-methyl-1,1-dioxo-3-(trifluoromethyl)-N-[2-(trifluoromethyl)-4-pyridyl]-2,3-dihydropyrrolo[3,4-f]thiazepine-6-carboxamide] | 290 nM | > 25 µM | –
19 | CC(C)[C@H]1COc2c(ccc(F)c2C(=O)Nc2ccc(F)c(F)c2)S(=O)(=O)N1 [Compound 44, (3S)—N-(3,4-difluorophenyl)-7-fluoro-3-isopropyl-1,1-dioxo-3,4-dihydro-2H-5,1λ^6,2-benzoxathiazepine-6-carboxamide] | 170 nM | > 25 µM | –
20 | Cn1cc2c(c1C(=O)Nc1ccc(F)c(F)c1)OC[C@](C)(Cc1ccccc1)NS2(=O)=O [Compound 155, (3S)-3-benzyl-N-(3,4-difluorophenyl)-3,7-dimethyl-1,1-dioxo-2,4-dihydropyrrolo[3,4-b][1,4,5]oxathiazepine-6-carboxamide] | 25 nM | > 25 µM | –
21 | CC(C)[C@H]1COc2c(ccc(F)c2C(=O)Nc2ccc(F)c(C#N)c2)S(=O)(=O)N1 [Compound 45, (3S)—N-(3-cyano-4-fluoro-phenyl)-7-fluoro-3-isopropyl-1,1-dioxo-3,4-dihydro-2H-5,1λ^6,2-benzoxathiazepine-6-carboxamide] | 230 nM | > 25 µM | –
22 | CC1CCc2c(nn(C)c2C(=O)Nc2ccc(F)c(F)c2)S(=O)(=O)N1 (centres unmarked) [compound 246] | > 130 nM | > 25 µM | –
